Assay results: US12194018B2, “Cannabinoid compositions” (SRE Wellness, Inc., priority 2016, dated 2025)

Legend:
[1] = in vivo; cited from earlier work
[2] = edible Cannabis products; depending on liver function; cited from earlier work
[3] = Emulsifying agents tested for emulsification of coconut oil and water (Example 2); type: physicochemical; conditions: coconut oils solid and liquid (MCT)
From the text: Several experiments were run using several different emulsifiers and combinations of different coconut oils: solid and liquid (MCT). (Note: liquid MCT is coconut oil that has medium chain triglyceride).

Molecule: C=C(C)[C@@H]1CCC(C)=C[C@H]1c1c(O)cc(CCCCC)cc1O [CBD, cannabidiol]
- Risk of lethal overdose [1]: no risk of lethal overdose

Molecule: CCCCCc1cc(O)c2c(c1)OC(C)(C)[C@@H]1CCC(C)=C[C@@H]21 [THC, Δ^9-tetrahydrocannabinol]
- Share of the THC able to be metabolized [2]: 2-6%
- Risk of lethal overdose [1]: no risk of lethal overdose

Molecule: cyclodextrin
- Effectiveness as emulsifying agent (emulsification of the oil and water) [3]: good results
